Assay results as given in patent US20260199309A1, “COMPOUNDS FOR THE TREATMENT OF CENTRA NERVOUS SYSTEM DISORDERS” (Autifony Therapeutics Limited, priority 2022, published 2026).

How the values were obtained:
[1] = target: T1, CYP2C8 (Homo sapiens, UniProt P10632); test: CYP450 inhibition, Vivid Baculosomes (2C8/DBOMF); format: in vitro ADME; settings: recombinant human CYP450 Baculosomes, substrate DBOMF; top concentration 5.00E-05
T1 construct: purchased
T1 sequence (P10632 1-490): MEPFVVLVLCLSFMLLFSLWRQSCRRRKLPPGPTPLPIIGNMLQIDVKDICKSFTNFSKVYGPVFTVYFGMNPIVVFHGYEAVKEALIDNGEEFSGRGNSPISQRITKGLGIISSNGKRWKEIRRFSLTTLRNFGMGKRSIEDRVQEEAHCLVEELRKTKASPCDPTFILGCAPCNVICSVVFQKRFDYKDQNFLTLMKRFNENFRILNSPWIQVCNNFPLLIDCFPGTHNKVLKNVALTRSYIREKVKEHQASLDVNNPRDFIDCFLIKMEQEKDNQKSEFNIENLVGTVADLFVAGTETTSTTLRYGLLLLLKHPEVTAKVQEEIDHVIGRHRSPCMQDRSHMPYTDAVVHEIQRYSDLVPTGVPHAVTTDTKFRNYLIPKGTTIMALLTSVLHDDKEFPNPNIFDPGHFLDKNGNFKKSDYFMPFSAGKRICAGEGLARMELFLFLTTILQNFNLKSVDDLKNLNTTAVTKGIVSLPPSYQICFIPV
Excerpt: The method uses recombinant human CYP450 to metabolize pro-fluorescent probe substrates to fluorescent products. IC50 values for the effect of test compounds on the metabolism of these probe substrates provides a measure of the potency of inhibition of individual CYP450 isoforms.
The described assays measure in vitro inhibitory effects (pIC50) of compounds at the human P450 isoforms (1A2, 2C8, 2C9, 2C19, 2D6, 3A4) expressed in recombinant microsomes. Pro-fluorescent probe substrates are metabolized to fluorescent products by the enzymes.
Fluorescence is measured in kinetic mode (1 read/min for 10 min) and the fluorescence rate is calculated. Data are normalized to controls: DMSO represents 0% effect (i.e. no inhibition), while 10 μM Miconazole is set to 100% effect (i.e. complete inhibition).
Inhibition of the fluorescent signal determined by P450 […] indicates antagonist activity of the compound and allows for the calculation of the compound plC50.
CRCs of compounds are run on two different test occasions (n=2) by preparing serial dilutions from the same compound stock solution. Details of the solutions are outlined in Table 6:
Test compound serial dilutions 1 to 3 were performed from a 10 mM stock solution in DMSO by Biomek FX to generate 10 point CRC. 100% DMSO was used for assay low controls. 10 mM (2 mM for 3A4/DBOMF, 2C8/DBOMF assay only) miconazole solution in DMSO was used as assay high controls. The final concentrations of the 10 point CRCs of test compounds in the assay plate were 5.00E-05; 1.67E-05; 5.56E-06; 1.85E-06; 6.17E-07; 2.06E-07; 6.86E-08; 2.29E-08; 7.62E-09 and 2.54E-09, respectively.
The CYP3A4 and CYP2C8 were assayed using the Vivid CYP3A4 Baculosomes, CYP2C8 Baculosomes and Vivid DBOMF Substrate. […]
10 μl/well from compound plate was added and incubated for 10 min at 37° C. on a plate shaker. […] The plate was transferred into the fluorescent plate reader (EnVision, Wallac) immediately within 2 min and monitor fluorescence every minute for 10 (Excitation 485, Emission 535 and Mirror 505 FITC). […]
The inhibition effect was expressed as percentage. […]

[2] = target: T2, human Kv3.1 channels (hKv3.1) (Homo sapiens, UniProt P48547); test: Kv3.1 channel modulation, IonWorks Quattro planar array electrophysiology; format: cell-based; settings: HEK-293 cells expressing human Kv3.1; for EC50: read-out: Kv3.1 pEC50 (converted); for Kv3.1 max R %: normalised to maximum effect of 50 microM reference compound
T2 construct: expressed in transfected cells
T2 sequence (P48547 1-511): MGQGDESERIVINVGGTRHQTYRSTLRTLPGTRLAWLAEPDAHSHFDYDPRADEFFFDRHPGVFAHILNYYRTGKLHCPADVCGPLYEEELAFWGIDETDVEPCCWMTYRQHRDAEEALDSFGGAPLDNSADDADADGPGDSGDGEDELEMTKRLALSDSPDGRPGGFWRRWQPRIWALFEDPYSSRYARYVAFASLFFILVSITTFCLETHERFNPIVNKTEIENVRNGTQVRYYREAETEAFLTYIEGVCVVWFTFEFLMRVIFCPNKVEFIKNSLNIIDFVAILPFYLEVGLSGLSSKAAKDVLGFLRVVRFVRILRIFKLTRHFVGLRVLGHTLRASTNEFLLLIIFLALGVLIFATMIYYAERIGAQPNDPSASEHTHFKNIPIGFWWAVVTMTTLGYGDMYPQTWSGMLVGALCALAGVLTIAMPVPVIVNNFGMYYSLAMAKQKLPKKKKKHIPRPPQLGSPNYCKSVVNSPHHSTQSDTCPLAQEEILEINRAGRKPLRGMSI

[3] = target: T3, CYP3A4 (Homo sapiens, UniProt P08684); test: CYP450 inhibition, pro-fluorescent probe substrate (3A4/7BQ); format: in vitro ADME; settings: recombinant human CYP450, substrate 7-BQ; top concentration 5.00E-05; read-out: CYP3A47BQ
T3 construct: purchased

[4] = currents at −15 mV voltage step, normalised to 50 microM reference compound and vehicle

T3 sequence (P08684 whole entry): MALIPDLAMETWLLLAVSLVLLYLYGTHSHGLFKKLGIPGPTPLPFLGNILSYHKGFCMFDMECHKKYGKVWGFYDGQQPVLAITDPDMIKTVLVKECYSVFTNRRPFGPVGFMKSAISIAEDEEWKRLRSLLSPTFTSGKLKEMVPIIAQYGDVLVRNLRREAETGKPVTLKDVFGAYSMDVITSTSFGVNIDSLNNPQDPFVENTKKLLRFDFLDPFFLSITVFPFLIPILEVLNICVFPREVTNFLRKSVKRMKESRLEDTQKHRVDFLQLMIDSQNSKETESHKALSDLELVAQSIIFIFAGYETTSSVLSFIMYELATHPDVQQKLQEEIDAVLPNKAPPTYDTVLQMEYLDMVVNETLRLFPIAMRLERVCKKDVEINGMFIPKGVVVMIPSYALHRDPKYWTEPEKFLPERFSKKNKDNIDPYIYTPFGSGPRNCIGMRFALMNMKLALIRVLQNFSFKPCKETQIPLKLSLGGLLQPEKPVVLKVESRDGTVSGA

Structure (SMILES) | IC50 [1] | Kv3.1 pEC50 [2, 4] | EC50 [2, 4] | Kv3.1 max R % [2] | IC50 [3]
Cc1ccc(Oc2ccc(N3C(=O)NC(C)(C)C3=O)c(N)n2)c2c1OCC21CC1 [Example 1, 3-[2-amino-6-(7-methylspiro[2H-benzofuran-3,1′-cyclopropane]-4-yl)oxy-3-pyridyl]-5,5-dimethyl-imidazolidine-2,4-dione] | 8900 nM | 6.6 | 251 nM | 183% | > 50000 nM
CC1(C)NC(=O)N(c2ccc(Oc3cccc(OC(F)(F)F)c3)nc2N)C1=O [Example 9, 3-[2-amino-6-[3-(trifluoromethoxy)phenoxy]-3-pyridyl]-5,5-dimethyl-imidazolidine-2,4-dione] | > 50000 nM | – | 2510 nM | 118% | > 50000 nM
COc1nc(Oc2ccc(C)c3c2C2(CC2)CO3)ccc1N1C(=O)NC(C)(C)C1=O [Reference Example 2, reference compound] | 2300 nM | – | 1000 nM | – | > 50000 nM
